Reference: ChEMBL document CHEMBL1201862, “PubChem BioAssay data set” (2004)
The source made the active and inactive calls.

Key:
[1] = target: T1, Polyadenylate-binding protein 1 (Homo sapiens, UniProt P11940); test: PABP inhibition in translation initiation, SAR follow-up (AID 435018); format: functional
[2] = target: T2, Eukaryotic translation initiation factor 4H (Homo sapiens, UniProt Q15056); test: eIF4H inhibition in translation initiation, SAR follow-up (AID 435011); format: functional
[3] = target: Cystic fibrosis transmembrane conductance regulator/Golgi-associated PDZ and coiled-coil motif-containing protein (Homo sapiens, UniProt P13569+Q9HD26); test: CAL PDZ peptide-binding inhibitors, dose response, biochemical, fluorescence polarization, Cerulean-tagged CAL PDZ, cherry-picks (AID 504773)
Sequence of Cystic fibrosis transmembrane conductance regulator/Golgi-associated PDZ and coiled-coil motif-containing protein (P13569 whole entry, other chains not shown): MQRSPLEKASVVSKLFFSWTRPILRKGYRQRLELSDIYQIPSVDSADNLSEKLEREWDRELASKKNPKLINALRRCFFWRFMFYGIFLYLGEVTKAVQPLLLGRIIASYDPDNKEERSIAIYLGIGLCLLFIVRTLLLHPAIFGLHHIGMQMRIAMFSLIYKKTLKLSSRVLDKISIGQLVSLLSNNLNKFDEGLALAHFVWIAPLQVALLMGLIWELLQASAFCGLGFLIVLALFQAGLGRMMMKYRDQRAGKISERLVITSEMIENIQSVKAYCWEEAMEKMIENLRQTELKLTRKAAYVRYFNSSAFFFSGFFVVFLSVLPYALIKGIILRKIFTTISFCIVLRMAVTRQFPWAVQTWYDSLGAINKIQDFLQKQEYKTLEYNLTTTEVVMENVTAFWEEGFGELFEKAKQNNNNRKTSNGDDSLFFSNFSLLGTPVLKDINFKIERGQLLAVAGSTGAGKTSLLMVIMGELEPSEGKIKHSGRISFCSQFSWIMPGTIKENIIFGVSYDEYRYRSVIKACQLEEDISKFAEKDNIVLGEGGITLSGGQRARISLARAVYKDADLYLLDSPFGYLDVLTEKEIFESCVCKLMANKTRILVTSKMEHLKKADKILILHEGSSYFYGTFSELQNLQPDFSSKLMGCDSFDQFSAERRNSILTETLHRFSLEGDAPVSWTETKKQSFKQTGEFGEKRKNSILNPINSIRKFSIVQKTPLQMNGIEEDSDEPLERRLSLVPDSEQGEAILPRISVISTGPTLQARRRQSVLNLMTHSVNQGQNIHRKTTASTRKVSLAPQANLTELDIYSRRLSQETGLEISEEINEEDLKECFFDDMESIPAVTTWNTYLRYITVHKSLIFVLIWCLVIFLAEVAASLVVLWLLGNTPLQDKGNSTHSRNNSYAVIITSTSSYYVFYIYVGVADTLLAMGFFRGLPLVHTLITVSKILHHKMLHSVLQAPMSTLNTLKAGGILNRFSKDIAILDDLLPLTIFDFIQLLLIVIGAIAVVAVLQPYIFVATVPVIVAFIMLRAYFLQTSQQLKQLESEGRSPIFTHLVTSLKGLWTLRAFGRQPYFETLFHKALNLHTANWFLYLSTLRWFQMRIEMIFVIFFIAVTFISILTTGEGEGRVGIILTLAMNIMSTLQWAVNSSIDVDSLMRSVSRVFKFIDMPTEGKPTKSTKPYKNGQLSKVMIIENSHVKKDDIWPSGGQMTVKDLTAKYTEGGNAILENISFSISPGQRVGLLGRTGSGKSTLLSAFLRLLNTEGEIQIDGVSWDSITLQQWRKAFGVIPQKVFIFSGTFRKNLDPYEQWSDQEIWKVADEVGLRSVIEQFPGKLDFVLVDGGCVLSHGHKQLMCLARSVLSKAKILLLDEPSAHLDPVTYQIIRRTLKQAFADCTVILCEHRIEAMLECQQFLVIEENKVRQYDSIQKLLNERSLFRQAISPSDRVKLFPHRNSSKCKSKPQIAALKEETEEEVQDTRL

[4] = target: T1, Polyadenylate-binding protein 1; test: PABP poly(A) RNA binding inhibitors, primary screen, biochemical, fluorescence polarization, uHTS (AID 2014)
[5] = target: T2, Eukaryotic translation initiation factor 4H; test: human eIF4H binding inhibitors, primary screen, translation initiation inhibitor project, biochemical, uHTS, fluorescence polarization (AID 2012)
[6] = target: T3, DNA dC->dU-editing enzyme APOBEC-3A (Homo sapiens, UniProt P31941); test: Dose Response confirmation of small molecule APOBEC3A DNA Deaminase Inhibitors via a fluorescence-based single-stranded DNA deaminase assay. [Related pubchem assays (depositor defined):AID493011, AID493024]; format: functional
T3 sequence (P31941 whole entry): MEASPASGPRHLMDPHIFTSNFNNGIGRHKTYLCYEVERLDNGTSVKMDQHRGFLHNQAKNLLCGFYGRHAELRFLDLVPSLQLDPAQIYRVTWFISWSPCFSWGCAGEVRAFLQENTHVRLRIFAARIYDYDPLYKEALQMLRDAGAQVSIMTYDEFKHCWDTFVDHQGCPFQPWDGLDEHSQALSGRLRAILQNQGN

[7] = target: T4, DNA dC->dU-editing enzyme APOBEC-3G (Homo sapiens, UniProt Q9HC16); format: functional
T4 sequence (Q9HC16 whole entry): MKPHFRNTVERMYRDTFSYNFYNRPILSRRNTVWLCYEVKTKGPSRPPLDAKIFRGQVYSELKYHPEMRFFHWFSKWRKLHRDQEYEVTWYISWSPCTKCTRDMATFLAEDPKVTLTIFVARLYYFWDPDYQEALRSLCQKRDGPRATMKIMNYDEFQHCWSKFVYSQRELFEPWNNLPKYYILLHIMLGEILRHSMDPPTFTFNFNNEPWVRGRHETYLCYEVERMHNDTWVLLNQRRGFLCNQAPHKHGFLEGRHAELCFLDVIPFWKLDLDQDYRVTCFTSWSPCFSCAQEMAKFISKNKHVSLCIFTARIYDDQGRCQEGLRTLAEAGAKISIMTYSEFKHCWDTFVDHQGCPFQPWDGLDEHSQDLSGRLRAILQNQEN

Importin subunit alpha-1 = Importin subunit alpha-1 (Homo sapiens, UniProt P52292); test: YIC FRET probe signal interference, dose response, counter-screen for RanGTP-importin-beta inhibitor project, biochemical, dry powder samples (AID 493094); format: functional
[8] = target: T3, DNA dC->dU-editing enzyme APOBEC-3A; test: APOBEC3A DNA deaminase inhibitors, dose response, biochemical (AID 504722); format: functional
[9] = target: T4, DNA dC->dU-editing enzyme APOBEC-3G; test: Dose Response confirmation of small molecule APOBEC3G DNA Deaminase Inhibitors via a fluorescence-based single-stranded DNA deaminase assay. [Related pubchem assays (depositor defined):AID493012, AID493028]; format: functional
MDA-MB-435 = test: cells; format: functional, cell-based; conditions: Homo sapiens
cells [10] = format: functional, cell-based; conditions: PPC-1
cells [11] = format: functional
[12] = HepG2 cell cytotoxicity, dose response, cytotoxicity control for non-replicating M. tuberculosis project (AID 489018); format: functional; conditions: Mycobacterium tuberculosis
[13] = THP-1 cell cytotoxicity, dose response, cytotoxicity control for non-replicating M. tuberculosis project (AID 489025); format: functional
[14] = inhibitors of intracellular T. cruzi replication, confirmation, NIH3T3 host cells, beta-gal luminescence (AID 2044); format: functional, cell-based;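 also: intracellular parasites grown in NIH/3T3 mouse fibroblasts as host cells; luminescent beta-galactosidase reporter signal from transgenic T. cruzi replicating inside host cells; inhibitors lower the luminescence signal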
[15] = Vero E6 cell cytotoxicity, dose response, cytotoxicity control for non-replicating M. tuberculosis project, secondary assay (AID 492998); format: functional, VeroE6; conditions: Vero C1008
[16] = cytotoxicity toward NIH3T3 fibroblasts, dose response, counter-screen, cell-based, ATP luminescence, mouse fibroblasts (AID 2010); format: functional;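 also: cells exposed to compound for about 90 hours before reading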

T1 sequence (P11940 whole entry): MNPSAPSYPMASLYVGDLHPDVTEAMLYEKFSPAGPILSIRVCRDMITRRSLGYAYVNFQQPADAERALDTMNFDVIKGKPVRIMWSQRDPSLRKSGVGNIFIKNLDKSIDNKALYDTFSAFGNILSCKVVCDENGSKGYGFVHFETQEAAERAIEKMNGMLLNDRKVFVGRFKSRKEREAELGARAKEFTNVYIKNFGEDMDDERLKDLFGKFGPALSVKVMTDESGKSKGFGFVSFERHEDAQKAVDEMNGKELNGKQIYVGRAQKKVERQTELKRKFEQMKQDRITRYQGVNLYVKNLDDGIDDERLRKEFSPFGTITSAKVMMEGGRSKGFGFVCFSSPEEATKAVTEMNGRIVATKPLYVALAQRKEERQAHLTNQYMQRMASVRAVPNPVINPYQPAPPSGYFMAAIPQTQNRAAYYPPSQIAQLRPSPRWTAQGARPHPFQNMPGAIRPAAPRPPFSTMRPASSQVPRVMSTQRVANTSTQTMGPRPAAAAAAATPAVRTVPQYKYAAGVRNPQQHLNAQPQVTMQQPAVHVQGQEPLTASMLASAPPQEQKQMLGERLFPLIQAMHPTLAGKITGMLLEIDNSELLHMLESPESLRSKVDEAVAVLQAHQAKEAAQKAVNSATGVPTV

For `COc1cc(/C=N/NC(=O)c2ccccc2O)ccc1OCC(=O)Nc1ccc([N+](=O)[O-])cc1`, the IC50 [1] was > 100 µM (inactive) and the IC50 [2] was > 100 µM (inactive).
With `O=C1C=C(c2ccccc2)C(c2ccccc2)C1` (stereo not drawn) the AC50 [3] was 17 µM (active).
In the case of `COc1cccc(NC(=O)c2ccc[n+](C)c2)c1`, the IC50 [4] is reported as 4.86 µM (active), the IC50 [5] is reported as > 100 µM (inactive) and the IC50 [6] is reported as 2.33 µM (active). For the same molecule, the IC50 [7] was 2.22 µM (active).
For `Cc1cccc(C)c1NC(=O)C1C(=O)c2sccc2N(C)S1(=O)=O` (stereo not drawn), the AC50 (Importin subunit alpha-1) was 273 µM (active).
In the case of `Cc1cccc(C)c1OCc1nnc(S)n1N`, the IC50 [8] is reported as > 100 µM (inactive) and the IC50 [9] is reported as 5.83 µM (active).
In the case of `CCSc1nc(O)cc(-c2ccccc2)n1`, the IC50 (MDA-MB-435) is reported as > 10 µM (inactive) and the IC50 (cells [10]) is reported as > 10 µM (inactive).
In the case of `CC(=O)Nc1nc2ccccc2n1Cc1ccc(C)cc1`, the IC50 (cells [11]) is reported as 2.73 µM (active), the CC50 [12] is reported as > 20 µM (active) and the CC50 [13] is reported as > 40 µM (active). For the same molecule, the EC50 [14] was 3.92 µM (active), the CC50 [15] was > 20 µM (active) and the EC50 [16] was 7.78 µM (active).
